Measured values as given in patent US20050096331A1, “Novel compounds and their use in medicine process for their preparation and pharmaceutical compositions containing them” (priority 2001, published 2005).

Columns and labels:
C57BL/KsJ-db/db mice = assay: Efficacy in genetic models: blood sugar and triglyceride lowering in db/db mice; type: in vivo, mouse
Text: Mutation in colonies of laboratory animals and different sensitivities to dietary regimens have made the development of animal models with non-insulin dependent diabetes and hyperlipidemia associated with obesity and insulin resistance possible. Genetic models such as db/db and ob/ob (Diabetes, (1982) 31(1): 1-6) mice and zucker fa/fa rats have been developed by the various laboratories for understanding the pathophysiology of disease and testing the efficacy of new antidiabetic compounds (Diabetes, (1983) 32: 830-838; Annu. Rep. Sankyo Res. Lab. (1994). 46: 1-57). The homozygous animals, C57 BL/KsJ-db/db mice developed by Jackson Laboratory, US, are obese, hyperglycemic, hyperinsulinemic and insulin resistant (J. Clin. Invest., (1990) 85: 962-967), whereas heterozygous are lean and normoglycemic. In db/db model, mouse progressively develops insulinopenia with age, a feature commonly observed in late stages of human type II diabetes when blood sugar levels are insufficiently controlled. The state of pancreas and its course vary according to the models. Since this model resembles that of type II diabetes mellitus, the compounds of the present invention were tested for blood sugar and triglycerides lowering activities.
Male C57BL/KsJ-db/db mice of 8 to 14 weeks age, having body weight range of 35 to 60 grams, bred at Dr. Reddy's Research Foundation (DRF) animal house, were used in the experiment The mice were provided with standard feed (National Institute of Nutrition (NIN), Hyderabad, India) and acidified water, ad libitum. The animals having more tan 350 mg/dl blood sugar were used for testing. The number of animals in each group was 4.
Test compounds were suspended on 0.25% carboxymethyl cellulose and administered to test group at a dose of 0.1 mg to 30 mg/kg through oral gavage daily for 6 days. The control group received vehicle (dose 10 ml/kg). On 6th day the blood samples were collected one hour after administration of test compounds/vehicle for assessing the biological activity.
The random blood sugar and triglyceride levels were measured by collecting blood (100 μl) through orbital sinus, using heparinised capillary in tubes containing EDTA which was centrifuged to obtain plasma. The plasma glucose and triglyceride levels were measured spectrometrically, by glucose oxidase and glycerol-3-PO4 oxidase/peroxidase enzyme (Dr. Reddy's Lab. Diagnostic Division Kits, Hyderabad, India) methods respectively.
The blood sugar and triglycerides lowering activities of the test compound was calculated according to the formula.
(§1) • 1. Percent reduction in Blood sugar/triglycerides/total cholesterol were calculated according to the formula: [formula] • OC=Zero day control group value • OT=Zero day treated group value • TC=Test day control group value • TT=Test day treated group value • 2. LDL and VLDL cholesterol levels were calculated according to the formula: [formula] [formula]

hPPARα = molecular target: T1, hPPARα (Homo sapiens, UniProt Q07869); assay: Determination of hPPARα activity (GAL4 luciferase reporter transactivation); type: cell-based; conditions: compound at 50 μM; luciferase activity in transfected HEK-293 cells
T1 construct: expressed in transfected cells; host or cells: HEK-293
T1 sequence (Q07869 239-466 limits assumed): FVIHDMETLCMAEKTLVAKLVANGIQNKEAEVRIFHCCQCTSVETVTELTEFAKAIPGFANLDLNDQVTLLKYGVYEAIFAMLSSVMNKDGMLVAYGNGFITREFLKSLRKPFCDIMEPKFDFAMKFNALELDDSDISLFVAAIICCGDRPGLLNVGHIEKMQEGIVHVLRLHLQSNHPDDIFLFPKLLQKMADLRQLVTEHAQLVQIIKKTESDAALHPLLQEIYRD
Procedure: Ligand binding domain of hPPARα was fused to DNA binding domain of Yeast transcription factor GAL4 in eucaryotic expression vector. Using superfect (Qiagen, Germany) as transfecting reagent HEK-293 cells were transfected with this plasmid and a reporter plasmid harboring the luciferase gene driven by a GAL4 specific promoter. Compound was added at different concentrations after 42 hrs of transfection and incubated overnight. Luciferase activity as a function of compound binding/activation capacity of PPARα was measured using Packard Luclite kit (Packard, USA) in Top Count (Ivan Sadowski, Brendan Bell, Peter Broag and Melvyn Hollis. Gene 1992, 118: 137-141; Superfect Transfection Reagent Handbook. February 1997. Qiagen, Germany).

hPPARγ1 = molecular target: T2, hPPARγ1 (Homo sapiens, UniProt P37231); assay: Determination of hPPARγ activity (GAL4 luciferase reporter transactivation); type: cell-based; conditions: compound at 1 μM; luciferase activity in transfected HEK-293 cells
T2 construct: expressed in transfected cells; host or cells: HEK-293
T2 sequence (P37231 238-503 limits assumed): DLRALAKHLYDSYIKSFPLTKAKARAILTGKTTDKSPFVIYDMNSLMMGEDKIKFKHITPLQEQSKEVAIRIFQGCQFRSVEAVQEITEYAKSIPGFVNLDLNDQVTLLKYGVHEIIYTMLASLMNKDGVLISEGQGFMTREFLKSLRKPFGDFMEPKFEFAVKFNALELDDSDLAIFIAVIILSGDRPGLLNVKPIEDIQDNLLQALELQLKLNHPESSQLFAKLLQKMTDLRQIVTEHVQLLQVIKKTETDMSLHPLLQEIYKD
Procedure: Ligand binding domain of hPPARγ1 was fused to DNA binding domain of Yeast transcription factor GAL4 in eucaryotic expression vector. Using lipofectamine (Gibco BRL, USA) as transfecting reagent HEK-293 cells were transfected with this plasmid and a reporter plasmid harboring the luciferase gene driven by a GAL4 specific promoter. Compound was added at 1 μM concentration after 48 hrs of transfection and incubated overnight. Luciferase activity as a function of drug binding/activation capacity of PPARγ1 was measured using Packard Luclite kit (Packard, USA) in Packard Top Count (Ivan Sadowski, Brendan Bell, Peter Broag and Melvyn Hollis. Gene 1992, 118: 137-141; Guide to Eukaryotic Transfections with Cationic Lipid Reagents. Life Technologies, GIBCO BRL, USA).

Swiss albino mice = assay: Plasma triglyceride and total cholesterol lowering activity in Swiss albino mice and Guinea pigs; type: in vivo, mouse; conditions: 6 days
Procedure: Male Swiss albino mice (SAM) and male Guinea pigs were obtained from NIN and housed in DRF animal house. All these animals were maintained under 12 hour light and dark cycle at 25±1° C. Animals were given standard laboratory chow (NIN, Hyderabad, India) and water, ad libitum. SAM of 20-25 g body weight range and Guinea pigs of 500-700 g body weight range were used (Oliver, P., Plancke, M. O., Marzin, D., Clavey, V., Sauzieres, J and Fruchart, J. C. Effects of fenofibrate, gemfibrozil and nicotinic acid on plasma lipoprotein levels in normal and hyperlipidemic mice. Atherosclerosis. 1988. 70: 107-114).
The test compounds were administered orally to Swiss albino mice at 0.3 to 30 mg/kg/day dose for 6 days. Control mice were treated with vehicle (0.25% Carboxymethylcellulose; dose 10 ml/kg). The test compounds were administered orally to Guinea pigs at […] dose for 6 days. Control animals were treated with vehicle (0.25% Carboxymethylcellulose; dose 5 ml/kg).
The blood samples were collected in fed state 1 hour after drug administration on 0 and 6 day of treatment. The blood was collected from the retro-orbital sinus through heparinised capillary in EDTA containing tubes. After centrifugation, plasma sample was separated for triglyceride and total cholesterol (Wieland, O. Methods of Enzymatic analysis. Bergermeyer, H. O., Ed., 1963. 211-214; Trinder, P. Ann. Clin. Biochem 1969, 6: 24-27). Measurement of plasma triglyceride, total cholesterol and HDL were done using commercial kits (Dr. Reddy's Diagnostic Division, Hyderabad, India).
as §1

[1] = 3 mg/kg oral gavage daily for 6 days
[2] = 10 mg/kg oral gavage daily for 6 days

Compound: CCCc1nn(C)c2c(OCCOc3ccc(CC(OCC)C(=O)OCC)cc3)nc(C)nc12 (stereo in doubt) [Example 5, Ethyl 2(S)-3-[4-{2-1,5-dimethyl-3-propyl-1H-pyrazolo[4,3-dipyrimidin-7-yloxy)ethoxy}phenyl]-2-ethoxypropanoate]
- Reduction in Blood Glucose Level (%) (C57BL/KsJ-db/db mice; [1]): 61%
- Triglyceride Lowering (%) (C57BL/KsJ-db/db mice; [1]): 51%

Compound: CCCCCCCN(C(=O)COc1nc(CC)nc2c(CCC)nn(C)c12)c1ccc(SC(CCC)C(=O)O)cc1 (stereo not shown) [Example 2, 2-[4-(5-Ethyl-1-methyl-3-propyl-1H-pyrazolo[4,3-d]pyrimidin-7-yloxymethyl-(heptyl)carboxamido)phenylsulfanyl]pentanoic Acid]
- PPARα (hPPARα): 2.7
- PPARγ (hPPARγ1): 1.4

Compound: CCCc1nn(C)c2c(OCCOc3ccc(C[C@H](OCC)C(=O)OC)cc3)nc(CC)nc12 [Example 4a, Methyl 2(S)-2-ethoxy-3-[4-{2-(5-ethyl-1-methyl-3-propyl-1H-pyrazolo [4,3-d]-pyrimidin-7-yloxy)ethoxy}phenyl]propanoate]
- Reduction in Blood Glucose Level (%) (C57BL/KsJ-db/db mice; [2]): 48%
- Triglyceride Lowering (%) (C57BL/KsJ-db/db mice; [2]): 69%

Compound: CCCc1nn(C)c2c(OCCOc3ccc(C[C@H](OCC)C(=O)O)cc3)nc(CC)nc12 [Example 4b, 2(S)-2-Ethoxy-3-[4-{2-(5-ethyl-1-methyl-3-propyl-1H-pyrazolo[4,3-d]pyrimidin-7-yloxy)ethoxy}phenyl]propanoic Acid]
- PPARα (hPPARα): 5.1
- Reduction in Blood Glucose Level (%) (C57BL/KsJ-db/db mice; [2]): 56%
- Triglyceride Lowering (%) (C57BL/KsJ-db/db mice; [2]): 17%
- PPARγ (hPPARγ1): 6.9

Compound: CCCc1nn(C)c2c(OCCOc3ccc(CC(OCC)C(=O)OCC)cc3)nc(-c3ccccc3)nc12 (stereo not shown) [Example 7, Ethyl 2-ethoxy-3-[4-{2-(1-methyl-5-phenyl-3-propyl-1H-pyrazolo-[4,3-d]-pyrimidin-7-yloxy)ethoxy}phenyl]propanoate]
- Triglyceride Lowering (%) (Swiss albino mice; 3 mg/kg orally): 43%

Compound: CCCc1nn(C)c2c(OCCOc3ccc(CC(OCC)C(=O)O)cc3)nc(-c3ccccc3)nc12 (stereo not shown) [Example 8, 3-[4-{2-(1-Methyl-5-phenyl-3-propyl-1H-pyrazolo-14,3-d]pyrimidin-7-yloxy)ethoxy}phenyl-2-ethoxypropanoic Acid]
- Triglyceride Lowering (%) (Swiss albino mice; 10 mg/kg orally): 61%

Compound: CCCc1nn(C)c2c(OCCOc3ccc(C[C@H](OCC)C(=O)O)cc3)nc(C3CC3)nc12 [Example 10, (2S)-3-[4-{2-(5-Cyclopropyl-1-methyl-3-propyl-1H-pyrazolo[4,3-d]pyrimidin-7-yloxy)ethoxy}phenyl]-2-ethoxypropanoic Acid]
- Triglyceride Lowering (%) (Swiss albino mice; 3 mg/kg orally): 42%
